Results as given in ChEMBL document CHEMBL3580588, “Inhibitors of the PAR-2 Signaling Pathway May Treat Pain and Inflammation” (ACS Med Chem Lett, 2015).

Biological target: Proteinase-activated receptor 1 (Homo sapiens) (UniProt P25116)
Assay: Antagonist activity against PAR1 in human HT29 cells assessed as inhibition of thrombin-induced Ca2+ responses pre-incubated for 30 mins before thrombin stimulation by FLIPR assay

Proteinase-activated receptor 1 (Homo sapiens), sequence (P25116 whole entry, looked up): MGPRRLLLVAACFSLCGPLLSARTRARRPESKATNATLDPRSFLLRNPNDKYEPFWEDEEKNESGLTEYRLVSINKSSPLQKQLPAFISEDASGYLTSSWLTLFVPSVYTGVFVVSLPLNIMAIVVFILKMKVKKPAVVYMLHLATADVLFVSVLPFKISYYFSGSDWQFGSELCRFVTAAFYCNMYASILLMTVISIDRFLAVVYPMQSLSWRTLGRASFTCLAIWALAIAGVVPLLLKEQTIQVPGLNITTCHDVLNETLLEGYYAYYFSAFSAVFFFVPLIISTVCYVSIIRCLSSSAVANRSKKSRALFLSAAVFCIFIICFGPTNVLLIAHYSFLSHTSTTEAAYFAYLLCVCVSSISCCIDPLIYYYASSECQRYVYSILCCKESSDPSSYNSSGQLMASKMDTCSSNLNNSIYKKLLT

Row | SMILES | IC50 [µM]
1 | CC(C)(C)OC(=O)N1CCN(C(=O)c2cn3nc(-c4ccc(F)cc4)cc(C(C)(C)C)c3n2)C(C)(C)C1 | > 50
2 | CCOC(=O)[C@H]1CCCN(C(=O)c2cn3nc(-c4ccc(F)cc4)cc(C(F)(F)F)c3n2)[C@@H]1C | 5.5
3 | CC(C)c1cc(-c2ccc(F)cc2)nn2cc(C(=O)N3CCN(C(=O)Cc4ccsc4)[C@@H](C)C3)nc12 | > 0.5
